Results on 10 molecules are retold here after patent US10759796B2, “CXCR4 inhibitors and uses thereof” (X4 Pharmaceuticals, Inc., priority 2016, dated 2020).

The IC50 is the concentration that gives 50% inhibition. By clearance is commonly meant a measure of how efficiently the substance is removed, as volume per time. A high value points to a high capacity for elimination.

For data set [1], the target named is CXCR-4 transfected U87 cell line (U87.CXCR4) (Homo sapiens (Human), UniProt P61073). Nature of the data set: Intracellular CXCL-12-induced calcium mobilization assay (FLIPR). In kind it is cell-based. To be noted: U87.CXCR4 cells, CXCL-12 25-50 ng/mL; read-out: IC50 CXCL-12 Ca2+ flux U87.CXCR4+. A digest of the protocol:
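U87.CXCR4 cells were seeded at 20,000 per well, cultured 12 hours, then loaded with 4 μM Fluo-2 AM for 45 min at 37° C. in HBSS with 20 mM HEPES and 0.2% BSA, pH 7.4. Calcium flux triggered by CXCL-12 (25-50 ng/mL) was tracked over time by FLIPR fluorescence at 37° C.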

Data set [2] concerns the target Jurkat cells expressing CXCR4 (Homo sapiens (Human), UniProt P61073). Description: Chemokine (CXCL12-AF647) binding inhibition assay. To be noted: CXCL12-AF647 25 ng/mL, read-out: IC50 CXCL-12 binding Jurkat. A digest of the protocol: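 Cells in HBSS, 20 mM HEPES, 0.2% BSA, pH 7.4, preincubated 15 min at room temperature with compound, then 25 ng/mL CXCL12-AF647 for 30 min. After washing and paraformaldehyde fixation, bound ligand read by flow cytometry; percent inhibition calculated from MFI relative to unlabeled and ligand-only controls.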

Data set [3] is described as follows: Mouse brain uptake assay (pharmacokinetics and brain penetration after IV administration), 0-1 h, 3 time points. In kind it is in vivo, Male CD1 Mice. To be noted: male; for Kp uu: CD1, brain and plasma, read-out: Kp, uu (unbound brain/unbound plasma drug concentration ratio); for Kp uu / clearance / half-life: Mouse, 0-1 h; for Kp uu / clearance / half-life / AUC(0-t): 3 mg/kg IV; for Kp: CD1, mouse, brain and plasma, iv, 3 mg/kg, read-out: Kp (brain/plasma drug concentration ratio); for clearance / half-life: CD1, plasma, 3 time points; for half-life: read-out: t½ (converted); for AUC(0-t): CD1, time zero to 1 hr. The protocol: Example 29: Pharmacokinetics and Brain Penetration Experiment to Determine Brain and Plasma Concentrations of Compounds After IV Administration to Male CD1 Mice or Male SD Rat
The study design (9 animals) consisted of administrating the drug (IV: 3 mg/kg (5 mL/kg) via tail vein injection) and collecting samples at terminal bleeding for plasma and brain at 0.083, 0.5 and 1 h. The blood collection was performed as follows: the animal was restrained manually and approximately 150 μL blood/time point was collected into a dipotassium EDTA tube via retro orbital puncture under anesthesia with isoflurane. The blood sample was put on ice and centrifuged to obtain a plasma sample (2000 g, 5 min under 4° C.) within 15 minutes. The brain collection was performed as follows: a mid-line incision was made in the animal's scalp and the skin was retracted. Using small bone cutters and rongeurs, the skull overlying the brain was removed. The brain was removed using a spatula and the brain rinsed with cold saline. The brain was placed in screw-top tubes, and the tubes were stored at −70° C. until analysis. The IV dosing solution was prepared in 50 mM citrate buffer (pH 4.0) at 0.6 mg/mL.
Plasma Sample Preparation:
An aliquot of 30 μL sample was added to 150 μL MeCN containing 50 ng/mL IS (Dexamethasone). The mixture was vortexed for 5 min and centrifuged at 14,000 rpm for 5 min. An aliquot of 5 μL supernatant was injected for LC-MS/MS analysis.
Brain Sample Preparation:
An aliquot of 30 μL brain homogenate (brain:PBS=1:3, w/v) sample was added to 150 μL IS in ACN (Dexamethasone, 50 ng/mL). The mixture was vortexed for 5 min and centrifuged at 14,000 rpm for 5 min. An aliquot of 5 μL supernatant was injected for LC-MS/MS analysis.
The sample analysis was performed on LCMS/MS-003 (API4000, triple quadruple) under the following conditions: positive ion, ESI, MRM detection using dexamethasone as internal standard. HPLC conditions: mobile phase A: H2O (0.025% formic acid (FA) with 1 mM NH4OAc); mobile phase B: MeOH (0.025% FA with 1 mM NH4OAc) on Waters X-Bridge C18 (2.1×50 mm, 2.5 μm) column at 60° C.

Data set [4] in a line: Fraction of drug unbound to plasma proteins, mouse. In kind it is in vitro ADME. The following applies: read-out: Fu (p) %.
The nature of data set [5]: Fraction of drug unbound to brain proteins, mouse. The following applies: read-out: Fu (b) %. In kind it is in vitro ADME.
[6] abbreviates: Mouse brain, read-out: AUClast (b).
Setting [7] is: Mouse plasma, read-out: AUClast (p).
Where [8] appears, read: Mouse plasma proteins (Table 9).

Read-outs that look alike come from different tables or passages of the source.

Chain of Jurkat cells expressing CXCR4 (P61073 whole entry): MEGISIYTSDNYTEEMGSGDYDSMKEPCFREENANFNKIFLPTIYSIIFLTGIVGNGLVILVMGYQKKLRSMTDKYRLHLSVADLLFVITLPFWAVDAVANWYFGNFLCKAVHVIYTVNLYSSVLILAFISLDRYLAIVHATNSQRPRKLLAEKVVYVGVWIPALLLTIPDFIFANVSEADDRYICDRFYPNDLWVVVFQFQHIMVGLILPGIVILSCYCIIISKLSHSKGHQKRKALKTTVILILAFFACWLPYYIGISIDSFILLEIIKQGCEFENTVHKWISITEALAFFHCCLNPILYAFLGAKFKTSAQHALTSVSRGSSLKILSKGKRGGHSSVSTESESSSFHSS
Chain of CXCR-4 transfected U87 cell line (U87.CXCR4) (P61073 whole entry): as above

Regarding `CN1CCN(c2cccc3nc([C@H]4CCC[C@@H](c5ncccc5Cl)N4)cn23)CC1` (racemic) [Compound I-149], the IC50 in data set [1] lay within 0.01 to 100 nM. Further, the IC50 in data set [2] is 0.01 to 100 nM. In data set [3], the Kp uu stood at 0.38, the Kp was determined as 1.45, the clearance is 207 mL/min/kg and the half-life was 22 min. Further, the AUC(0-t) in data set [3] (setting [6]) came out at 295 ng·h/mL. The AUC(0-t) in data set [3] (setting [7]) turned out to be 203 ng·h/mL. For the same molecule, the fraction unbound in data set [4] (setting [8]) was determined as 0.099. Moreover, in data set [5] (Mouse brain proteins (Table 9)), the fraction unbound came out at 0.026.

Regarding `CCN1CCN(c2cccc3nc([C@H]4CCC[C@@H](c5ncccc5C)N4C)c(Br)n23)CC1` [Compound I-19], in data set [1], the IC50 was 0.01 to 100 nM. For the same molecule, the IC50 in data set [2] lay within 0.01 to 100 nM. Moreover, in data set [3], the Kp uu was found to be 0.32, the Kp was 8.84, the clearance was 223 mL/min/kg and the half-life was 21.8 min. In addition, the AUC(0-t) in data set [3] (setting [6]) was determined as 1690 ng·h/mL. The AUC(0-t) in data set [3] (setting [7]) worked out at 191 ng·h/mL. Also, the fraction unbound in data set [4] (setting [8]) is 0.028. Also, in data set [5] (Mouse brain proteins (Table 9)), the fraction unbound came to 0.001.

On to `Cc1cccnc1[C@@H]1CCC[C@H](c2nc3cccc(N4CCN(C(C)C)CC4)n3c2Br)N1C` [Compound I-20], for which the IC50 in data set [1] was in the range of 100 to 1000 nM. Also, the IC50 in data set [2] was in the range of 0.01 to 100 nM. In data set [3], the Kp uu is 0.3, the Kp was found to be 6.29, the clearance is 173 mL/min/kg and the half-life was 22.4 min. Also, the AUC(0-t) in data set [3] (setting [6]) was 1520 ng·h/mL. Also, the AUC(0-t) in data set [3] (setting [7]) came out at 241 ng·h/mL. Besides, in data set [4] (setting [8]), the fraction unbound worked out at 0.021. Further, the fraction unbound in data set [5] (Mouse brain proteins (Table 9)) was found to be 0.001.

For `CN1CCN(c2cccc3nc([C@H]4CCC[C@@H](c5ncccc5Cl)N4)cn23)CC1` (single isomer, unassigned) [Compound I-188], the IC50 in data set [1] and in data set [2] was 0.01 to 100 nM throughout. In addition, the fraction unbound in data set [4] (Mouse plasma proteins (Table 12)) was found to be 0.143; in data set [5] (Mouse brain proteins (Table 12)), 0.054.

Turning to `Cc1cccnc1[C@@H]1CCC[C@H](c2cn3c(N4CCN(C)CC4)cccc3n2)N1` [Compound I-187], the IC50 in data set [1] fell in the range of 0.01 to 100 nM. Also, the IC50 in data set [2] is 0.01 to 100 nM. In addition, in data set [3], the Kp uu is 0.05, the Kp is 0.22, the clearance was 127 mL/min/kg and the half-life was 21.2 min. The AUC(0-t) in data set [3] (setting [6]) was determined as 76.5 ng·h/mL. In data set [3] (setting [7]), the AUC(0-t) came to 335 ng·h/mL. Moreover, the fraction unbound in data set [4] (setting [8]) came to 0.249. The fraction unbound in data set [5] (Mouse brain proteins (Table 9)) turned out to be 0.071.

Regarding `Cc1cccnc1[C@@H]1CCC[C@H](c2nc3cccc(N4CCC(N(C)C)CC4)n3c2Cl)N1C` [Compound I-114], the IC50 in data set [1] lay in the range of 0.01 to 100 nM. The IC50 in data set [2] was 0.01 to 100 nM. Moreover, in data set [3], the Kp uu worked out at 0.08, the Kp is 0.76, the clearance was 117 mL/min/kg and the half-life is 43.2 min. For the same molecule, the AUC(0-t) in data set [3] (setting [6]) is 205 ng·h/mL. Also, the AUC(0-t) in data set [3] (setting [7]) is 267 ng·h/mL. Moreover, the fraction unbound in data set [4] (setting [8]) came out at 0.028. For the same molecule, the fraction unbound in data set [5] (Mouse brain proteins (Table 9)) is 0.003.

For `Cc1cccnc1[C@@H]1CCC[C@H](c2nc3cccc(N4CCN(C)CC4)n3c2Cl)N1` [Compound I-146], the IC50 is 100 to 1000 nM in data set [1] and 0.01 to 100 nM in data set [2]. Moreover, in data set [3], the Kp uu was 0.21. Also, in data set [3], the Kp was determined as 1.86. In data set [3], the clearance is 7.22 mL/min/kg. Besides, the half-life in data set [3] was 361 min. The AUC(0-t) stood at 1640 ng·h/mL in data set [3] (setting [6]) and 884 ng·h/mL in data set [3] (setting [7]). Besides, the fraction unbound in data set [4] (setting [8]) worked out at 0.053; in data set [5] (Mouse brain proteins (Table 9)), 0.006.

`Cc1cccnc1[C@@H]1CCC[C@H](c2nc3cccc(N4CCN(C)CC4)n3c2Cl)N1C` [Compound I-18]: the IC50 in data set [1] lay in the range of 0.01 to 100 nM. The IC50 in data set [2] lay within 0.01 to 100 nM. Further, in data set [3], the Kp uu turned out to be 0.43, the Kp is 11.8, the clearance was 245 mL/min/kg and the half-life is 20.6 min. In addition, the AUC(0-t) in data set [3] (setting [6]) turned out to be 2060 ng·h/mL. Besides, the AUC(0-t) in data set [3] (setting [7]) is 175 ng·h/mL. In addition, in data set [4] (setting [8]), the fraction unbound stood at 0.054. The fraction unbound in data set [5] (Mouse brain proteins (Table 9)) was determined as 0.002.

For `Cc1cccnc1[C@@H]1CCC[C@H](c2cn3c(-c4cccnc4)cccc3n2)N1C` [Compound I-6], the IC50 in data set [1] fell in the range of 0.01 to 100 nM. The IC50 in data set [2] fell in the range of 100 to 1000 nM. Further, in data set [3], the Kp came to 0.61, the clearance is 48.3 mL/min/kg and the half-life is 216 min. For the same molecule, in data set [3] (setting [6]), the AUC(0-t) turned out to be 326 ng·h/mL. Further, the AUC(0-t) in data set [3] (setting [7]) worked out at 531 ng·h/mL.

Take `CN1CCN(c2cccc3nc([C@@H]4CCC[C@H](c5ncccc5Cl)N4)cn23)CC1` (single isomer, unassigned) [Compound I-189]: the IC50 in data set [1] lay within 100 to 1000 nM; in data set [2] it was 0.01 to 100 nM.
